Experimental findings from patent US9096591B2, “Tetracyclic compounds” (Medivation Technologies, Inc., priority 2007, dated 2015) are described below.

The target in assay [1] is T1, human recombinant serotonin (5-Hydroxytryptamine) 5-HT2C receptor (Homo sapiens, UniProt P28335).
T1 construct: expressed in transfected cells; host or cells: CHO-K1 cells
T1 sequence (P28335 33-458): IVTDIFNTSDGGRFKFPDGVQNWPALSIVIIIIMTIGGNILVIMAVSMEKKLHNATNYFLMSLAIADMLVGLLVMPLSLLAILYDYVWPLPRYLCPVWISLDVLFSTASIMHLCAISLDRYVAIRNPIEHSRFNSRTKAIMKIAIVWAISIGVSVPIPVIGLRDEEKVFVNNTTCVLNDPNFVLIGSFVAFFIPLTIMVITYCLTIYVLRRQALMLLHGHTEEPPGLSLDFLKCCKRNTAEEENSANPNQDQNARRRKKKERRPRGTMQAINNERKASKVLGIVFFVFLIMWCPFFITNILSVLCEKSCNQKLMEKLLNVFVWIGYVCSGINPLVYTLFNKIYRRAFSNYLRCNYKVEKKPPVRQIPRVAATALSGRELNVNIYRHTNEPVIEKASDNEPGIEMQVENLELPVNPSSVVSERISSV
The experiment in a line: Serotonin 5-HT2C radioligand binding ([3H]Mesulergine). Conditions: percent inhibition of specific binding. Details: Inhibition of ligand binding, Ser. 5-HT2C: concentration or dose not given beside the values. The procedure: Compounds of the invention were incubated with 1 nM [^3H]Mesulergine for 60 minutes at 25° C. Non-specific binding was estimated in the presence of 1 μM Mianserin. Receptor proteins were filtered and washed, the filters were then counted to determine [^3H]Mesulergine specifically bound. […] Biochemical assay results are presented as the percent inhibition of specific binding in Table 6.

The target in assay [2] is T2, human recombinant histamine H2 receptor (Homo sapiens, UniProt P25021).
T2 construct: expressed in transfected cells; host or cells: CHO-K1 cells
The experiment in a line: Histamine H2 radioligand binding ([125I]Aminopotentidine). Conditions: for inhibition at 0.3 µM: 0.3 μM compound. Put shortly:
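Test compounds were assessed for their ability to displace radioligand from the human recombinant histamine H2 receptor. Non-specific binding was determined in the presence of 3 μM Tiotidine, and results were expressed as percent inhibition of specific binding, with 1% DMSO serving as the vehicle.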

In assay [3] the test system is adrenergic receptors α1D, α2A, α2B; serotonin receptor 5-HT6; dopamine receptor D2L. In words: Classification of compounds (Type 1-4) from receptor binding and neurite outgrowth. The source says: Compounds of the invention that inhibit binding of a ligand to adrenergic receptors α1D, α2A, α2B and serotonin receptor 5-HT6 by at least about 80% as determined in a suitable assay such as the assays described herein can be classified as Type 1 compounds. […] In one variation, binding of a ligand to serotonin receptor 5-HT7 is at least about 80%. […] Weak inhibition of binding of a ligand to the histamine H1 receptor is permitted as agonists of this receptor have been implicated in stimulating memory as well as weight gain. In one variation, binding to histamine receptor H1 is inhibited by less than about 80%. […] Compounds that inhibit binding of a ligand to the dopamine D2L receptor by at least about 80% as determined in a suitable assay such as the assay described herein can be classified as Type 2 compounds.
In one variation, Type 1 compounds further inhibit binding of a ligand to dopamine receptor D2L by less than about 80% as determined in a suitable assay known in the art such as the assay described herein. […] In one variation, binding of a ligand to serotonin receptor 5-HT7, 5-HT2A and/or 5-HT2C is inhibited by at least about 80% as determined in a suitable assay such as the assays described herein. […] In one variation, binding of a ligand to histamine receptor H1 and/or H2 is inhibited by less than about 80% as determined by a suitable assay known in the art such as the assays described herein.
In one variation, biding to serotonin receptor 5-HT2A is inhibited by at least about 80% as determined in a suitable assay know in the art such as the assay described herein.

Assay [4] concerns the target T3, Serotonin (5-Hydroxytryptamine) 5-HT7 (Homo sapiens, UniProt P34969).
T3 construct: expressed in transfected cells; host or cells: CHO cells
The experiment in a line: Serotonin 5-HT7 radioligand binding ([3H]LSD). Details: Inhibition of ligand binding, Ser. 5-HT7: concentration or dose not given beside the values. Conditions: percent inhibition of specific binding. The procedure: Lysergic acid diethylamide (LSD) for 2 hours at 25° C. […] Receptor proteins were filtered and washed, the filters were then counted to determine [^3H]LSD specifically bound. […] Biochemical assay results are presented as the percent inhibition of specific binding in Table 6.

Assay [5] deals with T4, human recombinant dopamine D2L receptor (Homo sapiens, UniProt P14416).
T4 construct: expressed in transfected cells; host or cells: CHO cells
In words: Dopamine D2L radioligand binding ([3H]Spiperone). Conditions: percent inhibition of specific binding. The procedure: Non-specific binding was estimated in the presence of 10 μM Haloperidol. Receptor proteins were filtered and washed, the filters were then counted to determine [^3H]Spiperone specifically bound. […] Biochemical assay results are presented as the percent inhibition of specific binding in Table 6.

Assay [6] deals with T5, human recombinant adrenergic α2B receptor (Homo sapiens, UniProt P18089).
T5 construct: expressed in transfected cells; host or cells: CHO-K1 cells
T5 sequence (P18089 1-450): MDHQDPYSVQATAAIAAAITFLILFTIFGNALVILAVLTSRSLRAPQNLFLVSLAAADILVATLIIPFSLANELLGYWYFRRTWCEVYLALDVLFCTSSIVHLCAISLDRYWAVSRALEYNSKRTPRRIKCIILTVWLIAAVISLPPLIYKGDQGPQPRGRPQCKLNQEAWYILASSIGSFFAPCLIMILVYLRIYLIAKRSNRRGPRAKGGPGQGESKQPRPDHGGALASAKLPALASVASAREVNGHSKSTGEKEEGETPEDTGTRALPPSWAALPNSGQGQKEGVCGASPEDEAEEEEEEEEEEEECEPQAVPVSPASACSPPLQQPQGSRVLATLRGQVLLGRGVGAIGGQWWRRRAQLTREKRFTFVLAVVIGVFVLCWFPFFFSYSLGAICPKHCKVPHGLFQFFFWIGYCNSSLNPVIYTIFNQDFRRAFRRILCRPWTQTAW
In words: Adrenergic α2B radioligand binding ([3H]Rauwolscine). Details: Inhibition of ligand binding, Adren. alpha2B: concentration or dose not given beside the values. Conditions: percent inhibition of specific binding. In short, it runs like this: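 Membranes from CHO-K1 cells expressing the receptor, in 50 mM Tris-HCl pH 7.4 with 12.5 mM MgCl2, 1 mM EDTA, 0.2% BSA, incubated with compounds and 2.5 nM [3H]Rauwolscine for 60 minutes at 25 °C.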

Where [7] appears, read: 0.1 nM [125I]Aminopotentidine, read-out: Histamine Binding H2, percent inhibition of specific binding.
Setting [8] is: 1 μM compound, 0.1 nM [125I]Aminopotentidine, read-out: Histamine Binding H2, percent inhibition of specific binding.
Setting [9] is: percent inhibition of specific binding, screened at 1 μM, read-out: Inhibition of ligand binding, Hist. H2.

Read-outs that look alike come from different tables or passages of the source.

T3 sequence (P34969 whole entry): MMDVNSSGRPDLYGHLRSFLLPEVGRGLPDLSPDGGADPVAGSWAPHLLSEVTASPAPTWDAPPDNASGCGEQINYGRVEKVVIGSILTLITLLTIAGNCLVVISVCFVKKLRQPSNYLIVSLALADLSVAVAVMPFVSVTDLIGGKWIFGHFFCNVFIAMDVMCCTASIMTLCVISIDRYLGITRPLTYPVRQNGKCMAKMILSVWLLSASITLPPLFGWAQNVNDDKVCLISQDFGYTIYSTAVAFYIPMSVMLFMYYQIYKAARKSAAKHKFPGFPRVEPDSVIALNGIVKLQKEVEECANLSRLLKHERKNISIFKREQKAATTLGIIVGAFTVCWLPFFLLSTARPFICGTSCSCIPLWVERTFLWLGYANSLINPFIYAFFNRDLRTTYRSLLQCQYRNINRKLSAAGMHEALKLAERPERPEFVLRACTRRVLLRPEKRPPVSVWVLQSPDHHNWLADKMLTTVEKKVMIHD
T2 sequence (P25021 whole entry): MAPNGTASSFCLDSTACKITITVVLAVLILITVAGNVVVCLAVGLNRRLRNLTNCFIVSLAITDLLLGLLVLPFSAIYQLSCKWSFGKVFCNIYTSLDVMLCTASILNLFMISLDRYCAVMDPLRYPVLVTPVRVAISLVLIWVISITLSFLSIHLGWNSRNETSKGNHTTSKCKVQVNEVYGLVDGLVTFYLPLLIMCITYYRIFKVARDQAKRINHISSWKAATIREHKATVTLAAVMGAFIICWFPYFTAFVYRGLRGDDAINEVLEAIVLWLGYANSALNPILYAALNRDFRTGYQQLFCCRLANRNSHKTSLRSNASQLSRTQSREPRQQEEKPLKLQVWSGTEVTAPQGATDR
T4 sequence (P14416 whole entry): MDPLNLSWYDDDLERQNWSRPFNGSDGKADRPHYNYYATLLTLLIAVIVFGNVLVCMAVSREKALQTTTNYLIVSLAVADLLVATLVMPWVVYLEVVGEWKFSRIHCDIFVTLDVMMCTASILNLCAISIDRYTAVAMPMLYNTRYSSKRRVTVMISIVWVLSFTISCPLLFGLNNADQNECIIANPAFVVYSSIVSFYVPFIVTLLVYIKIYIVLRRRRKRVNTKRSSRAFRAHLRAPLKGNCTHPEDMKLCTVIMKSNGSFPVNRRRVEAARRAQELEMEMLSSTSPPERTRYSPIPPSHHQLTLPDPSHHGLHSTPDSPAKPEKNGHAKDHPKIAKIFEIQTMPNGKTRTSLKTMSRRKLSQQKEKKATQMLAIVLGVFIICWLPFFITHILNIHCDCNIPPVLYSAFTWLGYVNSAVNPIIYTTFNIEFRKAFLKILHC

A word on the inhibition: it is the percentage by which the read-out fell short of the control. As for `Cc1ccc(C(O)Cn2c3c(c4cc(C)ccc42)CN(C)CC3)cc1` (racemic) [Compound 28, racemic-2-(1,2,3,4-tetrahydro-2,8-dimethylpyrido[4,3-b]indol-5-yl)-1-p-tolylethanol], in assay [1], the “Inhibition of ligand binding, Ser. 5-HT2C” value (from here on “Inhibition … Ser. 5-HT2C”) was found to be 100%. The inhibition at 0.3 µM in assay [2] (setting [7]) amounted to 40%. The inhibition at 1 µM came to 58% in assay [2] (setting [8]) and 84% in assay [2] (setting [9]). For the same compound, the “compound type (classification by receptor binding profile and neurite outgrowth)” value (shortened to “compound type”) in assay [3] is given as “Type one”.
As to `CN1CCc2c(c3ccccc3n2CCc2ccccc2)C1` [Compound 2, 2,3,4,5-tetrahydro-2-methyl-5-phenethyl-1H-pyrido[4,3-b]indole], the “Inhibition … Ser. 5-HT2C” value in assay [1] amounted to 97%. Also, the inhibition at 0.1 µM in assay [2] (0.1 μM compound, 0.1 nM [125I]Aminopotentidine, read-out: Histamine Binding H2, percent inhibition of specific binding) was found to be 34%. The inhibition at 0.3 µM in assay [2] (setting [7]) was determined as 56%. Moreover, the inhibition at 1 µM in assay [2] (setting [8]) and in assay [2] (setting [9]) was 81% throughout. For the same compound, the “Inhibition of ligand binding, Ser. 5-HT7” value in assay [4] stood at 100%. Besides, in assay [5], the “Inhibition of ligand binding, Dop. D2L” value was 70%.
`CN1CCc2c(c3cc(Cl)ccc3n2CCc2cccnc2)C1` [Compound 55]: the “Inhibition … Ser. 5-HT2C” value in assay [1] worked out at 87%. For the same compound, the inhibition at 1 µM in assay [2] (setting [9]) is 62%. For the same compound, in assay [6], the “Inhibition of ligand binding, Adren. alpha2B” value (“Inhibition … Adren. alpha2B” for short) was 90%. The “Inhibition of ligand binding, Dop. D2L” value in assay [5] worked out at 29%. Besides, the “compound type” value in assay [3] is “Type one”.
Regarding `Cc1ccc2c(c1)c1c(n2CCc2cccnc2)CCN(C)C1` [Compound 60], in assay [1], the “Inhibition … Ser. 5-HT2C” value is 90%. In assay [2] (setting [9]), the inhibition at 1 µM was determined as 56%. The “Inhibition … Adren. alpha2B” value in assay [6] is reported as 95%. Also, the “Inhibition of ligand binding, Dop. D2L” value in assay [5] is 24%. Besides, the “compound type” value in assay [3] is on record as “Type one”.
With `Cc1ccc(CCn2c3c(c4cc(Cl)ccc42)CN(C)CC3)cn1` [Compound 225, 8-chloro-2,3,4,5-tetrahydro-2-methyl-5-(2-(6-methylpyridin-3-yl)ethyl)-1H-pyrido[4,3-b]indole], the “Inhibition … Ser. 5-HT2C” value in assay [1] was found to be 91%. The inhibition at 1 µM in assay [2] (read-out: Inhibition of ligand binding, Hist. H2) came to 72%. Further, the “Inhibition … Adren. alpha2B” value in assay [6] is given as 107%. Further, in assay [5], the “Inhibition of ligand binding, Dop. D2L” value is on record as 32%. In assay [3], the “compound type” value is on record as “Type one”.
Take `CN1CCc2c(c3cc(F)ccc3n2CCc2ccc(F)cc2)C1` [Compound 253]: the “Inhibition … Ser. 5-HT2C” value in assay [1] is reported as 93%. Besides, in assay [2] (setting [9]), the inhibition at 1 µM was found to be 73%. Besides, the “Inhibition … Adren. alpha2B” value in assay [6] turned out to be 104%. For the same compound, in assay [4], the “Inhibition of ligand binding, Ser. 5-HT7” value is on record as 87%. Moreover, the “Inhibition of ligand binding, Dop. D2L” value in assay [5] is 96%.
In the same order, the values of `CN1CCc2c(c3cc(Cl)ccc3n2CCn2cccc2)C1` [Compound 349, 8-Chloro-2-methyl-5-(2-pyrrol-1-yl-ethyl)-2,3,4,5-tetrahydro-1H-pyrido[4,3-b]indole] are 98%, 94%, 111%, 100% and 86%.
With `CCc1ccc2c(c1)c1c(n2CCc2ccc(C)nc2)CCN(C)C1` [Compound 357, 8-Ethyl-2-methyl-5-[2-(6-methyl-pyridin-3-yl)-ethyl]-2,3,4,5-tetrahydro-1H-pyrido[4,3-b]indole], the “Inhibition … Ser. 5-HT2C” value in assay [1] amounted to 67%. Further, the inhibition at 1 µM in assay [2] (setting [9]) is 68%. Moreover, the “Inhibition … Adren. alpha2B” value in assay [6] turned out to be 106%. Besides, the “Inhibition of ligand binding, Dop. D2L” value in assay [5] is 47%. Moreover, the “compound type” value in assay [3] is “Type one”.
Consider `CCc1ccc(CCn2c3c(c4cc(Cl)ccc42)CN(C)CC3)cn1` [Compound 371, 8-Chloro-5-[2-(6-ethyl-pyridin-3-yl)-ethyl]-2-methyl-2,3,4,5-tetrahydro-1H-pyrido[4,3-b]indole], for which, in assay [1], the “Inhibition … Ser. 5-HT2C” value came to 87%. Further, in assay [2] (setting [9]), the inhibition at 1 µM was determined as 74%. The “Inhibition … Adren. alpha2B” value in assay [6] was 98%. Further, the “Inhibition of ligand binding, Dop. D2L” value in assay [5] is recorded as 40%. The “compound type” value in assay [3] is “Type one”.
`Cc1ccc2c(c1)c1c(n2CC(=O)N2CCCCC2)CCN(C)C1` [Compound 395, 2-(1,2,3,4-tetrahydro-2,8-dimethylpyrido[4,3-b]indol-5-yl)-1-(piperidin-1-yl)ethanone]: the “Inhibition … Ser. 5-HT2C” value in assay [1] is on record as 50%. In addition, the inhibition at 1 µM in assay [2] (setting [9]) stood at 4%. The “Inhibition … Adren. alpha2B” value in assay [6] was 2%. The “Inhibition of ligand binding, Ser. 5-HT7” value in assay [4] stood at 24%. Moreover, in assay [5], the “Inhibition of ligand binding, Dop. D2L” value is 2%.
`Cc1ccc(CCn2c3c(c4cc(Cl)c(F)cc42)CN(C)CC3)cn1` [Compound 404, 8-Chloro-7-fluoro-2-methyl-5-[2-(6-methyl-pyridin-3-yl)-ethyl]-2,3,4,5-tetrahydro-1H-pyrido[4,3-b]indole]: the “Inhibition … Ser. 5-HT2C” value in assay [1] was found to be 78%. The inhibition at 1 µM in assay [2] (setting [9]) was found to be 88%. For the same compound, the “Inhibition … Adren. alpha2B” value in assay [6] was 95%. Besides, the “Inhibition of ligand binding, Dop. D2L” value in assay [5] stood at 35%. Besides, the “compound type” value in assay [3] was “Type one”.
In the case of `CC(Cn1c2c(c3ccccc31)CN(C)CC2)c1ccc(F)cc1` (centres unmarked) [Compound 455], the “Inhibition … Ser. 5-HT2C” value in assay [1] turned out to be 97%. Moreover, the inhibition at 1 µM in assay [2] (setting [9]) is 91%. The “Inhibition … Adren. alpha2B” value in assay [6] came to 120%. Moreover, in assay [4], the “Inhibition of ligand binding, Ser. 5-HT7” value is 98%. Moreover, the “Inhibition of ligand binding, Dop. D2L” value in assay [5] is recorded as 88%.
